Tested on: gene expression in heart tissue
Assay: Genome-wide gene expression in heart tissue of old mice fed a resveratrol-supplemented diet (Affymetrix Mouse Genome 430 2.0 array)
Format: in vivo

Measured: Effect of resveratrol on changeing gene expression from old to young profile

Oc1ccc(/C=C/c2cc(O)cc(O)c2)cc1 [resveratrol, 3,4′,5-Trihydroxy-trans-stilbene]
>100%: 1415741_at TPA regulated locus | 1416113_at FK506 binding protein 8 | 1416167_at peroxiredoxin 4 | 1416647_at branched chain ketoacid dehydrogenase E1, alpha polypeptide | 1416648_at dynein, cytoplasmic, heavy chain 1 | 1416698_a_at CDC28 protein kinase 1 | 1416800_at transient receptor potential cation channel, subfamily M, member 7 | 1417149_at procollagen-proline, 2-oxoglutarate 4-dioxygenase (proline 4-hydroxylase), alpha II polypeptide | 1417502_at transmembrane 4 superfamily member 2 | 1417628_at suppressor of Ty 6 homolog (S. cerevisiae) | 1417947_at proliferating cell nuclear antigen | 1417968_a_at methyl-CpG binding domain protein 1 | 1417982_at insulin induced gene 2 | 1418128_at adenylate cyclase 6 | 1418468_at annexin A11 | 1418509_at carbonyl reductase 2 | 1418524_at pericentriolar material 1 | 1418595_at plasma membrane associated protein, S3-12 | 1418648_at EGL nine homolog 3 (C. elegans) | 1418663_at multiple PDZ domain protein | 1418706_at solute carrier family 38, member 3 | 1419034_at casein kinase II, alpha 1 polypeptide | 1419220_at cardiomyopathy associated 1 | 1419665_a_at nuclear protein 1 | 1420620_a_at ring finger protein 13 | 1420727_a_at trimethyllysine hydroxylase, epsilon | 1420834_at vesicle-associated membrane protein 2 | 1420896_at synaptosomal-associated protein 23 | 1420899_at RAB18, member RAS oncogene family | 1420920_a_at ADP-ribosylation factor 1 | 1421468_at potassium inwardly-rectifying channel, subfamily J, member 3 | 1422452_at Bcl2-associated athanogene 3 | 1422799_at HLA-B associated transcript 2 | 1423040_at basic leucine zipper and W2 domains 1 | 1423126_at ATPase, Na+/K+ transporting, beta 3 polypeptide | 1423220_at eukaryotic translation initiation factor 4E | 1423474_at topoisomerase (DNA) I | 1423607_at lumican | 1423845_at expressed sequence AI481750 | 1423898_a_at gene trap locus 6 | 1424164_at mitochondrial ribosomal protein L50 | 1425022_at ubiquitin specific protease 3 | 1425281_a_at delta sleep inducing peptide, immunoreactor | 1425507_at ADP-ribosylation factor related protein 1 | 1425977_a_at serine/threonine kinase 2 | 1426440_at dehydrogenase/reductase (SDR family) member 7 | 1426613_a_at U2 small nuclear ribonucleoprotein B | 1427006_at guanine nucleotide releasing factor 2 | 1427036_a_at eukaryotic translation initiation factor 4, gamma 1 | 1427045_at synaptopodin | 1427245_at ADP-ribosylation factor GTPase activating protein 1 | 1427874_at zinc finger protein 313 | 1429186_a_at cytidine and dCMP deaminase domain containing 1 | 1431054_at LSM6 homolog, U6 small nuclear RNA associated (S. cerevisiae) | 1433558_at disabled homolog 2 (Drosophila) interacting protein | 1433811_at myeloid/lymphoid or mixed lineage-leukemia translocation to 6 homolog (Drosophila) | 1433890_a_at HLA-B-associated transcript 3 | 1433904_at BCL2-antagonist/killer 1 | 1434930_at two pore channel 1 | 1434944_at dystrophia myotonica kinase, B15 | 1435472_at kringle containing transmembrane protein | 1435658_at solute carrier family 27 (fatty acid transporter), member 1 | 1435664_at zinc finger protein 397 | 1436960_at bromodomain containing 3 | 1437892_at Mus musculus transcribed sequences | 1444089_at spectrin beta 2 | 1445186_at stanniocalcin 2 | 1448119_at 2,3-bisphosphoglycerate mutase | 1448185_at homocysteine-inducible, endoplasmic reticulum stress-inducible, ubiquitin-like domain member 1 | 1448277_at polymerase (DNA directed), delta 2, regulatory subunit | 1448307_at Down syndrome critical region homolog 2 (human) | 1448424_at frizzled-related protein | 1448703_at LSM8 homolog, U6 small nuclear RNA associated (S. cerevisiae)

From patent US20090247646A1, “USE OF RESVERATROL AND DERIVATIVES THEREOF FOR PROMOTING THE WELLNESS STATE IN MAMMALS” (priority 2006, published 2009)
